Assay results taken from the supplement of paper PMC13380429.
Where a name gives a salt, the structure may show the parent alone.

Columns and labels:
Conditions in all cases: 72 h
U2OS [1] = assay: drug sensitivity score (DSS) for viability; higher = more toxic; extreme values may be limits of the assay
HepG2 [2] = assay: as above
Calu-3 [3] = assay: as above
Caco-2 [4] = assay: as above
Vero E6 [5] = assay: as above
U2OS [6] = assay: relative viability EC50 (midpoint between 100% and the lowest measured viability); higher = less toxic
HepG2 [7] = assay: as above
Caco-2 [8] = assay: as above
Vero E6 [9] = assay: as above
U2OS [10] = assay: cell viability relative to DMSO; higher = less toxic
HepG2 [11] = assay: as above
Calu-3 [12] = assay: as above
Caco-2 [13] = assay: as above
Vero E6 [14] = assay: as above

Row | Compound | drug sensitivity score (U2OS [1]) | drug sensitivity score (HepG2 [2]) | drug sensitivity score (Calu-3 [3]) | drug sensitivity score (Caco-2 [4]) | drug sensitivity score (Vero E6 [5]) | relative viability EC50 (U2OS [6]) | relative viability EC50 (HepG2 [7]) | relative viability EC50 (Caco-2 [8]) | relative viability EC50 (Vero E6 [9]) | cell viability (U2OS [10]; 1 nM) | cell viability (U2OS [10]; 10 nM) | cell viability (U2OS [10]; 100 nM) | cell viability (U2OS [10]; 1000 nM) | cell viability (U2OS [10]; 10000 nM) | cell viability (HepG2 [11]; 1 nM) | cell viability (HepG2 [11]; 10 nM) | cell viability (HepG2 [11]; 100 nM) | cell viability (HepG2 [11]; 1000 nM) | cell viability (HepG2 [11]; 10000 nM) | cell viability (Calu-3 [12]; 1 nM) | cell viability (Calu-3 [12]; 10 nM) | cell viability (Calu-3 [12]; 100 nM) | cell viability (Calu-3 [12]; 1000 nM) | cell viability (Calu-3 [12]; 10000 nM) | cell viability (Caco-2 [13]; 1 nM) | cell viability (Caco-2 [13]; 10 nM) | cell viability (Caco-2 [13]; 100 nM) | cell viability (Caco-2 [13]; 1000 nM) | cell viability (Caco-2 [13]; 10000 nM) | cell viability (Vero E6 [14]; 1 nM) | cell viability (Vero E6 [14]; 10 nM) | cell viability (Vero E6 [14]; 100 nM) | cell viability (Vero E6 [14]; 1000 nM) | cell viability (Vero E6 [14]; 10000 nM)
1 | CC(=O)O/N=C1\C(=O)N(Cc2cc(Cl)ccc2Cl)c2ccc(Cl)cc21 | 0 | 0 | 2.1 | 1 | 0 | > 10000 nM | > 10000 nM | > 10000 nM | > 10000 nM | 100% | 99% | 97.7% | 96.6% | 97.3% | 97.9% | 97.7% | 104% | 108% | 86.9% | 103% | 90.7% | 93.9% | 98.4% | 61.8% | 97.3% | 92% | 104% | 91% | 83.9% | 98.3% | 105% | 97.3% | 98.7% | 97.9%
2 | N[C@@H](CC(=O)Nc1ccc(Oc2cc(F)c(F)cc2Br)cc1)C(=O)O | 0 | 0 |  | 0 | 0 | > 10000 nM | > 10000 nM | > 10000 nM | > 10000 nM | 99% | 94.4% | 101% | 94.7% | 102% | 94.2% | 92.6% | 91.7% | 111% | 104% |  |  |  |  |  | 94.8% | 88.1% | 98.6% | 87% | 99% | 91% | 98.3% | 95.1% | 101% | 105%
3 | O=C(Nc1ccc([N+](=O)[O-])cc1O)Nc1ccccc1Br | 5.6 | 5.1 | 1.6 | 6.4 | 5.9 | 1720 nM | 2190 nM | 1200 nM | 1660 nM | 98.3% | 99.6% | 96.9% | 87% | 36.6% | 89.9% | 101% | 89.7% | 92% | 32.5% | 102% | 98.2% | 88.4% | 108% | 59.3% | 98.6% | 103% | 102% | 77% | 40.5% | 101% | 98.3% | 94.5% | 85.7% | 34.8%
4 | CCN(CC)CCOC(=O)C(Cc1cccc2ccccc12)CC1CCCO1 (mixture of isomers) [naftidrofuryl] |  |  | 0 |  | 0.2 |  |  |  |  |  |  |  |  |  |  |  |  |  |  |  |  |  |  |  |  |  |  |  |  |  |  |  |  | 
5 | c1ccc(CCCCN2CCC(c3ccccc3)CC2)cc1 [4-PPBP] | 0 | 1.6 | 2.2 | 1.4 | 0 | > 10000 nM | > 10000 nM | > 10000 nM | > 10000 nM | 90.7% | 91.2% | 96.1% | 94.7% | 84.6% | 99.8% | 103% | 101% | 93.8% | 77.9% | 93% | 111% | 96.7% | 95.1% | 69.3% | 94.7% | 94.9% | 89.8% | 86.1% | 84.4% | 100% | 102% | 102% | 99.7% | 90%
6 | COc1cc(N2CCC(N3CCN(C)CC3)CC2)ccc1Nc1ncnc(Nc2ccccc2S(=O)(=O)C(C)C)n1 [ASP3026] | 1.4 | 6 |  | 2.5 | 4 |  | 1980 nM |  |  | 100% | 94.5% | 99.6% | 98.5% | 70.9% | 107% | 96.6% | 99.7% | 88.7% | 25.2% |  |  |  |  |  | 102% | 101% | 95.7% | 92.7% | 68.6% | 92.9% | 97.9% | 100% | 90.9% | 51.7%
7 | COc1cccc(-c2cc(NCc3ccc4c(c3)OCO4)nc(N)n2)c1 [BML-284] | 10.3 | 9.8 | 5.8 | 7.3 | 12.8 | 590 nM | 572 nM | 707 nM | 349 nM | 92.8% | 97% | 95.8% | 49.8% | 27.7% | 97.7% | 97.2% | 93.9% | 52.9% | 30.5% | 104% | 92.9% | 102% | 66.9% | 62.4% | 104% | 93.4% | 102% | 62.4% | 46.6% | 102% | 99.9% | 101% | 29.8% | 27.6%
8 | N=c1ccn2c(n1)O[C@H]1[C@H](O)[C@@H](CO)O[C@H]12 [Cyclocytidine HCl] | 1.4 | 15 | 2.7 | 3.7 | 4 |  | 115 nM | > 10000 nM |  | 95.1% | 99.9% | 99.8% | 97.2% | 74.8% | 104% | 103% | 74.1% | 38% | 37.7% | 91.5% | 99.2% | 101% | 93% | 65.9% | 88.4% | 99.2% | 83.1% | 80.6% | 77.8% | 98.1% | 97.1% | 98.5% | 87.4% | 58.3%
9 | Cc1c(C)c2c(c(C)c1OC(=O)CCC(=O)O)CC[C@@](C)(CCC[C@H](C)CCC[C@H](C)CCCC(C)C)O2 [D-alpha-tocopheryl-succinate] |  | 0 |  | 0 | 0 |  | > 10000 nM | > 10000 nM | > 10000 nM |  |  |  |  |  | 95.4% | 109% | 95.3% | 106% | 113% |  |  |  |  |  | 98.2% | 104% | 106% | 96.5% | 102% | 97.8% | 101% | 97.9% | 102% | 111%
10 | COc1cc(OC)c(/C=C2/C(=O)Nc3ccccc32)c(OC)c1 [IC261] | 5.4 | 4.6 | 2.4 | 3.7 | 7.2 | 1580 nM | 2240 nM |  | 991 nM | 95% | 99.8% | 98.5% | 86% | 41.6% | 97.5% | 102% | 108% | 92.9% | 37.1% | 90.1% | 97% | 95.9% | 96.7% | 61.8% | 96.9% | 92.9% | 95.1% | 90.5% | 57.6% | 99% | 99.2% | 102% | 69.2% | 39.1%
11 | NC[C@@H]1O[C@H](O[C@@H]2[C@@H](CO)OC(O[C@@H]3[C@@H](O)[C@H](N)C[C@H](N)[C@H]3OC3O[C@H](CN)[C@@H](O)[C@H](O)[C@H]3N)[C@@H]2O)[C@H](N)[C@@H](O)[C@@H]1O (stereo not given in full) [NEOMYCIN TRISULFATE] |  |  |  | 0 |  |  |  | > 10000 nM |  |  |  |  |  |  |  |  |  |  |  |  |  |  |  |  | 96.6% | 103% | 96.3% | 91.7% | 97.3% |  |  |  |  | 
12 | CS(=O)(=O)c1ccc(Oc2cc(F)cc(C#N)c2)c2c1[C@H](O)C(F)(F)C2 [PT-2385] | 0 | 0 |  | 1.7 | 0 | > 10000 nM | > 10000 nM | > 10000 nM | > 10000 nM | 103% | 97.3% | 98.7% | 100% | 99.4% | 103% | 107% | 97.4% | 97.2% | 104% |  |  |  |  |  | 102% | 94.9% | 88.9% | 86.3% | 95.2% | 101% | 99.6% | 100% | 96.9% | 105%
13 | N#Cc1c(Oc2ccc(F)c(NC(=O)Cc3cccc(C(F)(F)F)c3)c2)ccc2nc(NC(=O)C3CC3)sc12 [TAK-632] | 3.5 | 14.9 | 3 | 3.8 | 6.8 | 3050 nM | 289 nM |  | 1370 nM | 97.9% | 102% | 94.8% | 99% | 37.8% | 99.9% | 106% | 85.1% | 29% | 17.2% | 105% | 105% | 110% | 93% | 61.6% | 100% | 99.4% | 91.8% | 84.9% | 55.6% | 100% | 106% | 104% | 79% | 32.3%
14 | O=C(NNC(=O)c1ccc(CNS(=O)(=O)c2ccc(F)c(Cl)c2)cc1)c1ccccc1 [TCN201] | 0 | 0 |  | 0 | 0 | > 10000 nM | > 10000 nM | > 10000 nM | > 10000 nM | 96.3% | 99.8% | 97.7% | 94% | 96.4% | 89.3% | 108% | 97% | 90.7% | 97.7% |  |  |  |  |  | 109% | 108% | 99.1% | 99.8% | 103% | 104% | 98.5% | 98.4% | 102% | 102%
15 | CN(C)CCOc1ccc(/C(=C(/CCCl)c2ccccc2)c2ccccc2)cc1 [Toremifene citrate] | 0.1 | 2.8 | 3.4 | 2.6 | 0 | > 10000 nM |  |  | > 10000 nM | 106% | 103% | 105% | 99% | 87.8% | 110% | 103% | 104% | 90% | 68.8% | 94.1% | 100% | 88.7% | 90.4% | 57.5% | 109% | 98.8% | 93.7% | 96.3% | 60.4% | 99.6% | 99.3% | 99.8% | 97.6% | 91.9%
